22 compounds from PMC8812461, “Synthesis of New 3-Arylcoumarins Bearing N-Benzyl Triazole Moiety: Dual Lipoxygenase and Butyrylcholinesterase Inhibitors With Anti-Amyloid Aggregation and Neuroprotective Properties Against Alzheimer’s Disease” (Frontiers in Chemistry, 2022) can be followed below.

For orientation: IC50 means the concentration needed to halve the response being measured.

Read-outs that look alike come from different tables or passages of the source. A value given as a limit tells only on which side of the number the result lay.

Type in all cases: biochemical
For assay [1], the target named is T1, 15-LOX (soybean lipoxygenase) (Glycine max, UniProt P08170).
T1 construct: purchased Merck or Aldrich
T1 sequence (P08170 1-839): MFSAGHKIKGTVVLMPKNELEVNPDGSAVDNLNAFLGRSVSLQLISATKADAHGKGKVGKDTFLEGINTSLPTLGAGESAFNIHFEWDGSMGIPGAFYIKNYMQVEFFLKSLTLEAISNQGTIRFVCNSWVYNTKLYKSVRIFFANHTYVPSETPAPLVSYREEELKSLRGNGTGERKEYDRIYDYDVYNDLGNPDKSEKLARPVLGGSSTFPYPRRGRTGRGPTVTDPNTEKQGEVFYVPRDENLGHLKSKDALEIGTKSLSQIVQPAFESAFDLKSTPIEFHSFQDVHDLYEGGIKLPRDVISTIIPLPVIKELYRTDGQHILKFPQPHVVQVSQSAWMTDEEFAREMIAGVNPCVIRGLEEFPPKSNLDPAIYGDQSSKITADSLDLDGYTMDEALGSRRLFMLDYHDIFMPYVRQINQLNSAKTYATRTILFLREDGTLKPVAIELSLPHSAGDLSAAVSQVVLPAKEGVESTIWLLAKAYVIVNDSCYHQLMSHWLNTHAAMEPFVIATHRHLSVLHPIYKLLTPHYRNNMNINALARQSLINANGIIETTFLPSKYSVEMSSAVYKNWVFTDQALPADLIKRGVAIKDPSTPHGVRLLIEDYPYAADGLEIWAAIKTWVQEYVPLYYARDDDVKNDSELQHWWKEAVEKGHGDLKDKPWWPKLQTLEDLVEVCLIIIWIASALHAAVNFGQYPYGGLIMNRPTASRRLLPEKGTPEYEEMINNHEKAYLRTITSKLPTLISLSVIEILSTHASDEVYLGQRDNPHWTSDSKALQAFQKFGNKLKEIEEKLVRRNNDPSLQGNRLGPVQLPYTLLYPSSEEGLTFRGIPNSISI
Put plainly: Soybean 15-LOX inhibition assay. As for the experimental part: A solution of the target compound was prepared in DMSO, and it was diluted with phosphate buffer (0.1 M, pH = 8.0).

The target of assay [2] is T2, BuChE (from equine serum) (Equus caballus, UniProt P81908).
T2 construct: BuChE from equine serum was employed for Ellman’s assay; purchased Merck or Aldrich; host or cells: equine serum
T2 sequence (P81908 whole entry): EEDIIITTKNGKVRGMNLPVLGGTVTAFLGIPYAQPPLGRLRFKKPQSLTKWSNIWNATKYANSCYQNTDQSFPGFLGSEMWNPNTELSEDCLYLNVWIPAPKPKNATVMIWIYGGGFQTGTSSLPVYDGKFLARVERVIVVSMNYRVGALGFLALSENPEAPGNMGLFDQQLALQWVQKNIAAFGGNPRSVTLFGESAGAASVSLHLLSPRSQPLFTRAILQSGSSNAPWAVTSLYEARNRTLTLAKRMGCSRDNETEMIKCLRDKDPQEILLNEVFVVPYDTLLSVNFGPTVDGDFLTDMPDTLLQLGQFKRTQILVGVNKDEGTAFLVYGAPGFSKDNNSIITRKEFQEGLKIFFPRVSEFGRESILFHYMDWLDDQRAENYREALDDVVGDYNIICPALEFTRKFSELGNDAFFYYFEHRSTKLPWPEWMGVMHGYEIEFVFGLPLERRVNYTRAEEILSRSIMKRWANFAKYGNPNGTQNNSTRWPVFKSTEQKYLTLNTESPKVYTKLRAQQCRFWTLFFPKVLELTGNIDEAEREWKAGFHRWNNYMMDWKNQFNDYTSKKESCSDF
Put plainly: biochemical. The settings on record: for eq BuChE %inhib.: test concentration not given; for IC50: mean ± SEM of three experiments, read-out: eq BuChE IC50. As for the experimental part: (§1) AChE from electrophorus electricus and BuChE from equine serum was employed for Ellman’s assay. Each compound (5.0 mg) was dissolved in 1.0 ml of DMSO. […] Briefly, a mixture of phosphate buffer (2.0 ml, 0.1 M, pH = 8.0), 60.0 µl of DTNB solution, and 20.0 µl of AChE/BuChE was prepared, and 30.0 µl of the test compounds in different concentrations were then added to the mixture. Next, a solution of the substrate (acetylthiocholine iodide/butyrylthiocholine iodide, 20.0 µl) was added to the mixture after 10 min incubation at 25°C. All experiments were performed in triplicates, and the temperature of all solutions was controlled to be maintained at 25°C. […] The blank solution was used to validate the non-enzymatic hydrolysis of the substrate during the assessment. The blank solution was prepared by a mixture of 2.0 ml of buffer, 30.0 μl of DMSO, 60.0 μl of DTNB, and 20.0 μl of substrate. The rate of the enzymatic hydrolysis of the substrate was calculated, and % inhibition of the compounds was determined. The half maximal inhibitory concentration (IC50) values were graphically determined from inhibition curves (logarithm of the concentration of the tested compound versus percent of the inhibition).

Assay [3] concerns the target T3, AChE (from electrophorus electricus) (Electrophorus electricus, UniProt O42275).
T3 construct: purchased Merck or Aldrich
The assay can be described thus: Cholinesterase inhibition assay (Ellman's method), AChE. The settings on record: test concentration not given. As for the experimental part: as §1

Another assay deals with T4, Aβ1-42 (Homo sapiens, UniProt P05067).
T4 construct: was used to dissolve amyloid β1-40 (Sigma A1075); purchased Sigma A1075
T4 sequence (P05067 672-711): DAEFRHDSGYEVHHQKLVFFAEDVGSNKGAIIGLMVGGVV
The assay can be described thus: Self-induced Aβ1-42 aggregation (ThT assay). Conditions: Aβ1-42 10.0 μM, compound 100.0 μM, ThT.

The mark [4] stands for this setting: soybean lipoxygenase, linoleic acid substrate, read-out: 15-LOX IC50.

T3 sequence (O42275 24-633): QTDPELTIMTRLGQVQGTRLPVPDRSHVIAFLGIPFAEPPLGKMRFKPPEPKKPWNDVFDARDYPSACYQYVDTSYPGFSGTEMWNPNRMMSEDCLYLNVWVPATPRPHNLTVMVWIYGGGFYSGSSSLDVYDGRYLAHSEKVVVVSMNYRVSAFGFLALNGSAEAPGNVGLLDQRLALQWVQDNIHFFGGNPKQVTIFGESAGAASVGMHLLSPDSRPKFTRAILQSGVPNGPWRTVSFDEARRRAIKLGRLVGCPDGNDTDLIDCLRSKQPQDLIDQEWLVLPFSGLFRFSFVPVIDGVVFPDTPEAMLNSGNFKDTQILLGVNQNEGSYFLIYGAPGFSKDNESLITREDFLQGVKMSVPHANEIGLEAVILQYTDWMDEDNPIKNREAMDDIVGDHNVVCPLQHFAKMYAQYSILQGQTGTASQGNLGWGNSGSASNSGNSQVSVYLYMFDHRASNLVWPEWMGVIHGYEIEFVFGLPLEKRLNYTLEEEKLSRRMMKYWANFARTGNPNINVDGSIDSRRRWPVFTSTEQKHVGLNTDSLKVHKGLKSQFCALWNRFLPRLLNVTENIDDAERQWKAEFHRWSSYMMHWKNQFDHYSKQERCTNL

`COc1cccc2cc(-c3ccc(OCc4cn(Cc5cccc(F)c5)nn4)cc3)c(=O)oc12` [8p, 3-(4-((1-(3-Fluorobenzyl)-1H-1,2,3-triazol-4-yl)methoxy)phenyl)-8-methoxy-2H-chromen-2-one] came in with an IC50 in assay [1] of 22.6 ± 0.8 µM. The “eq BuChE %inhib.” value in assay [2] is on record as 41.7%. In addition, in assay [3], the “ee AChE %inhib.” value is listed as 29.8%.
For `COc1cccc2cc(-c3ccc(OCc4cn(Cc5ccccc5F)nn4)cc3)c(=O)oc12` [8o, 3-(4-((1-(2-Fluorobenzyl)-1H-1,2,3-triazol-4-yl)methoxy)phenyl)-8-methoxy-2H-chromen-2-one], the 50% inhibitory concentration (IC50) in assay [1] turned out to be 14.2 ± 0.4 µM. The “eq BuChE %inhib.” value in assay [2] worked out at 8.0%. Also, the “ee AChE %inhib.” value in assay [3] is 4.0%.
In the case of `O=c1oc2ccccc2cc1-c1ccc(OCc2cn(Cc3ccc([N+](=O)[O-])cc3)nn2)cc1` [8j, 3-(4-((1-(4-Nitrobenzyl)-1H-1,2,3-triazol-4-yl)methoxy)phenyl)-2H-chromen-2-one], in assay [1] (setting [4]), the half-inhibitory concentration (IC50) is more than 100 µM. In addition, the “ee AChE %inhib.” value in assay [3] turned out to be 14.7%.
For the compound `O=c1oc2ccccc2cc1-c1ccc(OCc2cn(Cc3ccc(F)cc3)nn2)cc1` [8d, 3-(4-((1-(4-Fluorobenzyl)-1H-1,2,3-triazol-4-yl)methoxy)phenyl)-2H-chromen-2-one], in assay [1], half-maximal inhibition (IC50) required 45.2 ± 1.5 µM. Further, in assay [2], the “eq BuChE %inhib.” value amounted to 12.7%. Moreover, the “ee AChE %inhib.” value in assay [3] was 32.4%.
On to `O=c1oc2ccccc2cc1-c1ccc(OCc2cn(Cc3ccccc3[N+](=O)[O-])nn2)cc1` [8h, 3-(4-((1-(2-Nitrobenzyl)-1H-1,2,3-triazol-4-yl)methoxy)phenyl)-2H-chromen-2-one], for which, in assay [1] (setting [4]), the half-maximal inhibitory concentration (IC50) is more than 100 µM. For the same compound, the “ee AChE %inhib.” value in assay [3] was 20.8%.
Consider `COc1cccc2cc(-c3ccc(OCc4cn(Cc5ccccc5[N+](=O)[O-])nn4)cc3)c(=O)oc12` [8s, 8-Methoxy-3-(4-((1-(2-nitrobenzyl)-1H-1,2,3-triazol-4-yl)methoxy)phenyl)-2H-chromen-2-one], for which the IC50 in assay [1] (setting [4]) was more than 100 µM. The “eq BuChE %inhib.” value in assay [2] is recorded as 42.5%. Moreover, in assay [3], the “ee AChE %inhib.” value is given as 27.4%.
With `O=c1oc2ccccc2cc1-c1ccc(OCc2cn(Cc3ccc(Br)cc3)nn2)cc1` [8g, 3-(4-((1-(4-Bromobenzyl)-1H-1,2,3-triazol-4-yl)methoxy)phenyl)-2H-chromen-2-one], the IC50 in assay [1] (setting [4]) was more than 100 µM. In addition, in assay [2], the “eq BuChE %inhib.” value stood at 46.7%. In addition, the “ee AChE %inhib.” value in assay [3] is on record as 35.5%.
Take `O=c1oc2ccccc2cc1-c1ccc(OCc2cn(Cc3ccccc3)nn2)cc1` [8a, 3-(4-((1-Benzyl-1H-1,2,3-triazol-4-yl)methoxy)phenyl)-2H-chromen-2-one]: the results for the IC50 in assay [1] and in assay [2] were 36.2 ± 1.5 µM and 27.6 ± 1.3 µM, respectively. Further, the “ee AChE %inhib.” value in assay [3] is listed as 23.6%.
`O=c1oc2ccccc2cc1-c1ccc(OCc2cn(Cc3ccc(Cl)cc3)nn2)cc1` [8f, 3-(4-((1-(4-Chlorobenzyl)-1H-1,2,3-triazol-4-yl)methoxy)phenyl)-2H-chromen-2-one]: the IC50 in assay [1] (setting [4]) was more than 100 µM. Further, in assay [2], the “eq BuChE %inhib.” value was 23.6%. Also, the “ee AChE %inhib.” value in assay [3] is on record as 41.4%.
Take `O=c1oc2ccccc2cc1-c1ccc(OCc2cn(Cc3cccc([N+](=O)[O-])c3)nn2)cc1` [8i, 3-(4-((1-(3-Nitrobenzyl)-1H-1,2,3-triazol-4-yl)methoxy)phenyl)-2H-chromen-2-one]: the IC50 in assay [1] (setting [4]) was more than 100 µM. Besides, in assay [3], the “ee AChE %inhib.” value was determined as 49.9%.
For `COc1cc2c(cc1OC)C(=O)C(CC1CCN(Cc3ccccc3)CC1)C2` (centres unmarked) [Donepezil, donepezil, reference compound], the “Inhibition of self-induced Aβ1-42 aggregation” value at Aβ1-42 was found to be 42.5 ± 0.3%.
`O=c1oc2ccc([N+](=O)[O-])cc2cc1-c1ccc(OCc2cn(Cc3ccccc3F)nn2)cc1` [8w, 3-(4-((1-(2-Fluorobenzyl)-1H-1,2,3-triazol-4-yl)methoxy)phenyl)-6-nitro-2H-chromen-2-one]: in assay [1] (setting [4]), the IC50 is more than 100 µM. The “eq BuChE %inhib.” value in assay [2] is listed as 30.4%. Moreover, the “ee AChE %inhib.” value in assay [3] is on record as 16.6%.
As for `O=c1oc2ccccc2cc1-c1ccc(OCc2cn(Cc3ccccc3Cl)nn2)cc1` [8e, 3-(4-((1-(2-Chlorobenzyl)-1H-1,2,3-triazol-4-yl)methoxy)phenyl)-2H-chromen-2-one], in assay [1] (setting [4]), the IC50 was more than 100 µM. The “ee AChE %inhib.” value in assay [3] was determined as 37.3%.
`O=c1oc2ccc(Br)cc2cc1-c1ccc(OCc2cn(Cc3ccccc3F)nn2)cc1` [8u, 6-Bromo-3-(4-((1-(2-fluorobenzyl)-1H-1,2,3-triazol-4-yl)methoxy)phenyl)-2H-chromen-2-one]: the IC50 in assay [1] (setting [4]) was determined as 61.5 ± 1.9 µM. The “eq BuChE %inhib.” value in assay [2] came to 46.6%. Further, the “ee AChE %inhib.” value in assay [3] is given as 45.1%.
For the compound `COc1cccc2cc(-c3ccc(OCc4cn(Cc5ccc(Cl)cc5)nn4)cc3)c(=O)oc12` [8r, 3-(4-((1-(4-Chlorobenzyl)-1H-1,2,3-triazol-4-yl)methoxy)phenyl)-8-methoxy-2H-chromen-2-one], the results for the IC50 in assay [1] and in assay [2] were more than 100 µM and 6.7 ± 0.4 µM, respectively. For the same compound, in assay [3], the “ee AChE %inhib.” value is reported as 41.5%.
As to `O=c1oc2ccc(Br)cc2cc1-c1ccc(OCc2cn(Cc3ccc(Br)cc3)nn2)cc1` [8t, 6-Bromo-3-(4-((1-(4-bromobenzyl)-1H-1,2,3-triazol-4-yl)methoxy)phenyl)-2H-chromen-2-one], the IC50 in assay [1] (setting [4]) is more than 100 µM. Also, in assay [3], the “ee AChE %inhib.” value stood at 15.1%.
Turning to `Cc1cccc(Cn2cc(COc3ccc(-c4cc5ccccc5oc4=O)cc3)nn2)c1` [8k, 3-(4-((1-(3-Methylbenzyl)-1H-1,2,3-triazol-4-yl)methoxy)phenyl)-2H-chromen-2-one], the IC50 in assay [1] (setting [4]) was found to be 53.5 ± 1.5 µM. The “eq BuChE %inhib.” value in assay [2] was 37.1%. In addition, the “ee AChE %inhib.” value in assay [3] amounted to 27.4%.
For the compound `O=c1oc2ccccc2cc1-c1ccc(OCc2cn(Cc3ccccc3F)nn2)cc1` [8b, 3-(4-((1-(2-Fluorobenzyl)-1H-1,2,3-triazol-4-yl)methoxy)phenyl)-2H-chromen-2-one], the IC50 in assay [1] came out at 16.5 ± 0.7 µM; in assay [2], 36.5 ± 1.1 µM. In addition, the “ee AChE %inhib.” value in assay [3] was 11.2%.
In assay [1], `COc1ccc(Cn2cc(COc3ccc(-c4cc5ccccc5oc4=O)cc3)nn2)cc1` [8m, 3-(4-((1-(4-Methoxybenzyl)-1H-1,2,3-triazol-4-yl)methoxy)phenyl)-2H-chromen-2-one] came in with an IC50 of 41 ± 1.4 µM. In assay [2], the “eq BuChE %inhib.” value is listed as 40.2%. The “ee AChE %inhib.” value in assay [3] is listed as 26.6%.
As to `COc1cccc2cc(-c3ccc(OCc4cn(Cc5ccc(F)cc5)nn4)cc3)c(=O)oc12` [8q, 3-(4-((1-(4-Fluorobenzyl)-1H-1,2,3-triazol-4-yl)methoxy)phenyl)-8-methoxy-2H-chromen-2-one], the results for the IC50 in assay [1] and in assay [2] were 35 ± 1.3 µM and 18.9 ± 0.9 µM, respectively. For the same compound, the “ee AChE %inhib.” value in assay [3] stood at 38.1%.
In turn, `O=c1oc2ccccc2cc1-c1ccc(OCc2cn(Cc3cccc(F)c3)nn2)cc1` [8c, 3-(4-((1-(3-Fluorobenzyl)-1H-1,2,3-triazol-4-yl)methoxy)phenyl)-2H-chromen-2-one] yielded an IC50 in assay [1] of 28.3 ± 1.4 µM. In addition, the “eq BuChE %inhib.” value in assay [2] was 48.9%. For the same compound, the “ee AChE %inhib.” value in assay [3] was 15.3%.
Regarding `O=c1oc2ccc([N+](=O)[O-])cc2cc1-c1ccc(OCc2cn(Cc3ccccc3)nn2)cc1` [8v, 3-(4-((1-Benzyl-1H-1,2,3-triazol-4-yl)methoxy)phenyl)-6-nitro-2H-chromen-2-one], the IC50 in assay [1] was more than 100 µM; in assay [2], 6.3 ± 0.4 µM. In addition, in assay [3], the “ee AChE %inhib.” value turned out to be 48.3%.
